“And” between values parts separate entries of the source, which are not always exact repeats. Identical values can stand only once. The source made the active and inactive calls.
Columns and labels:
[1] = test system: Escherichia coli; assay: microbe, parasite or virus in culture
[2] = cytotoxicity in HPDE-C7 cells, cell-based, fluorescence, HTS (AID 430); format: functional; details: Homo sapiens
[3] = test system: Escherichia coli; assay: microbe, parasite or virus in culture; remark: listed apart in the source
[4] = cytotoxicity in KRAS-transformed pancreatic duct cells, primary screen, cell-based, fluorescence, HTS (AID 431); format: functional; details: Homo sapiens;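 note: cell line used: HPDE-C7K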
[5] = test system: HEK293; assay: cells; details: Homo sapiens
[6] = test system: HEK293; assay: cells; format: functional, cell-based; details: Homo sapiens
[7] = test system: HEK293; assay: cells; format: functional, cell-based; details: Homo sapiens; remark: listed apart in the source
[8] = cytotoxicity in HEK-293T NF-kB-Luc cells, dose response, cytotoxicity control for B/T-cell NF-kB inhibitor project, cell-based, uHTS hits (AID 489019); format: functional;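 note: IC50 reflects cytotoxicity as loss of cell viability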
[9] = HepG2 cell cytotoxicity, dose response, cytotoxicity control for Shn3 inhibitor project, CellTiter-Glo, cherry-picked (AID 624134); format: functional, cell-based
[10] = molecular target: T1, COUP transcription factor 2 (Homo sapiens, UniProt P24468); assay: Luminescence-based cell-based high throughput dose response assay to identify inhibitors of COUP-TFII (NR2F2).; format: functional;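 note: HEK293 cells transiently cotransfected with COUP-TFII expression vector and reporter; luciferase reporter luminescence driven by COUP-TFII from the pX2-168 reporter plasmid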
T1 sequence (P24468 whole entry): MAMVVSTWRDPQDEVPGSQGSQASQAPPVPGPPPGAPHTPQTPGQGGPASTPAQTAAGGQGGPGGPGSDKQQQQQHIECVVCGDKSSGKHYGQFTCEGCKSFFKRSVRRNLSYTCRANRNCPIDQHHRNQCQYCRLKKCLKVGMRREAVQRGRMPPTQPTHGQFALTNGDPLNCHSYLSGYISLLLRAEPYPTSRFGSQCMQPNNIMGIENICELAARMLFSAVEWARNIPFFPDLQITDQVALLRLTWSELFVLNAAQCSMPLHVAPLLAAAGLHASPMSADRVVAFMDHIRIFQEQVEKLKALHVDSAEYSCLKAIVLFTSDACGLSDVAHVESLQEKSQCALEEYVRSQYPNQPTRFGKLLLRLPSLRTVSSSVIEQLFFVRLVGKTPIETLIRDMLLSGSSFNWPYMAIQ

[11] = test system: HEK293; assay: NOD1 signaling inhibitors, primary screen, cell-based, luminescence, uHTS (AID 1578); format: functional; details: Homo sapiens
[12] = Shn3 3'UTR reporter inhibitors, dose response, cell-based, Clone20 osteoblasts, firefly luciferase, cherry-picked (AID 624132); format: functional;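 note: firefly luciferase luminescence from reporter carrying the Shn3 3'UTR in osteoblasts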
[13] = molecular target: T2, Nucleotide-binding oligomerization domain-containing protein 1 (Homo sapiens, UniProt Q9Y239); assay: NOD1 signaling inhibitors, SAR follow-up, revised (AID 2333); format: functional
T2 sequence (Q9Y239 whole entry): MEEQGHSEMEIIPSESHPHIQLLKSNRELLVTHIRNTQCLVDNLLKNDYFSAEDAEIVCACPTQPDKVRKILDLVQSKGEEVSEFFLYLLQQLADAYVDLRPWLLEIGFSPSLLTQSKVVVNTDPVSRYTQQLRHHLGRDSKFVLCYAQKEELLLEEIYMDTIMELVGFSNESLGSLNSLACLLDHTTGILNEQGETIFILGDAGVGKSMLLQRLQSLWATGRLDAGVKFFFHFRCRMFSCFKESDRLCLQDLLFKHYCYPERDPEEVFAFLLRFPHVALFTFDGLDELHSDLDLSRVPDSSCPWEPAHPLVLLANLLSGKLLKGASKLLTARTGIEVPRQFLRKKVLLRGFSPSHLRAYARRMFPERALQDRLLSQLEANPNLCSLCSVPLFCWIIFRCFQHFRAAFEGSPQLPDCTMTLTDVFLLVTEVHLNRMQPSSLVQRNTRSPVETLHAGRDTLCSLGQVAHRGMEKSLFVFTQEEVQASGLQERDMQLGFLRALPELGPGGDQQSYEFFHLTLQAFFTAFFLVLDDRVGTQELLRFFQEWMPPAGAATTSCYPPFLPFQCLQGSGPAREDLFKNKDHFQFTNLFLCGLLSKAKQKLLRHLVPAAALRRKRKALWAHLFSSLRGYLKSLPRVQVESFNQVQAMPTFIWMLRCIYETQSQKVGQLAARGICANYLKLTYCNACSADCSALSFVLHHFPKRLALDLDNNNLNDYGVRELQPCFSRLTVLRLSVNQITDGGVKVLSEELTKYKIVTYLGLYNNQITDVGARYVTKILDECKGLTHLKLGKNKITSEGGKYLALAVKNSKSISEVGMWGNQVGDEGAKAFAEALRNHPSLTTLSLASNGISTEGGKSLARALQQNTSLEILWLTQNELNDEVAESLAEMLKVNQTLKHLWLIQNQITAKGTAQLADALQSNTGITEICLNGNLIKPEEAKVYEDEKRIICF

[14] = control 3'UTR Renilla luciferase suppression, dose response, counter-screen for Shn3 inhibitor project, cell-based, Clone20-Shn3RL, cherry-picked (AID 624133); format: functional
[15] = test system: HEK293; assay: NOD2 signaling inhibitors in MDP-stimulated cells, cell-based, uHTS, luminescence (AID 2001); format: functional; details: Homo sapiens
[16] = molecular target: Tumor necrosis factor (Homo sapiens, UniProt P01375); assay: TNFa-triggered NF-kB activation inhibitors, SAR follow-up, cell-based, revised (AID 2337); format: functional
[17] = test system: INS1; assay: beta cell apoptosis inhibitors, cytokine rescue, dose response, luminescence, retest (AID 449756); format: functional, cell-based; details: Rattus norvegicus;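 note: cell death triggered by IL-1 beta plus TNF-alpha plus IFN-gamma mixture; protective hits raise ATP signal compared with cytokine alone wells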
[18] = test system: Jurkat; assay: antigen receptor-induced NF-kB inhibitors, dose response, Jurkat, luciferase reporter, luminescence, B- and T-cell (AID 489004); format: functional, cell-based; details: Homo sapiens;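 note: NF-kB luciferase reporter Jurkat cells stimulated with PMA plus ionomycin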
[19] = molecular target: Nucleotide-binding oligomerization domain-containing protein 2 (Homo sapiens, UniProt Q9HC29); assay: NOD2 signaling inhibitors, cell-based, luminescence, uHTS, HEK293 (AID 1566); format: functional
[20] = test system: HEK293; assay: cells; format: functional, cell-based; details: Homo sapiens; remark: listed apart in the source
[21] = test system: BJ; assay: cytotoxicity toward BJ-TERT-LT-ST fibroblasts, dose response, cell-based, RAS-independent, luminescence (AID 1935); format: functional; details: Homo sapiens;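 note: BJ fibroblasts immortalized with TERT plus LT and ST oncogenes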
[22] = test system: BJ; assay: cytotoxicity toward BJ-TERT fibroblasts, dose response, cell-based, RAS-independent, luminescence (AID 1933); format: functional; details: Homo sapiens
[23] = molecular target: Phospholipase A2 (Homo sapiens, UniProt P04054); assay: PLA2 enzyme inhibitors, dose response, counter-screen for ATG4B inhibitor project, biochemical, set 2 (AID 588586); format: functional
[24] = molecular target: T3, Cysteine protease ATG4B (Homo sapiens, UniProt Q9Y4P1); assay: ATG4B protease inhibitors, dose response, biochemical, fluorescence, set 2 (AID 588584); format: functional
T3 sequence (Q9Y4P1 whole entry): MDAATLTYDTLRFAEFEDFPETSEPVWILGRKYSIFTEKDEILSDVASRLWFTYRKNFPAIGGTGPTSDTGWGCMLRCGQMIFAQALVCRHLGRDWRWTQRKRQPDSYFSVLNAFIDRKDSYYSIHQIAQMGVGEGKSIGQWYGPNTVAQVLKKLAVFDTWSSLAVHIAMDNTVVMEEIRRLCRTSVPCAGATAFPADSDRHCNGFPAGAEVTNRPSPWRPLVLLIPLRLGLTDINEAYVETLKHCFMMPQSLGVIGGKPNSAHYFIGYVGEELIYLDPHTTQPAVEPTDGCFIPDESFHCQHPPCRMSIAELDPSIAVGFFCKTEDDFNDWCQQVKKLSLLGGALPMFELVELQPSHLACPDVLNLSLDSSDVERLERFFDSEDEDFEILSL

[25] = cytotoxicity toward DRD oncogenic fibroblasts, dose response, cell-based, non-viral oncogenic, luminescence (AID 1934); format: functional; details: Homo sapiens
[26] = test system: BJ; assay: cells; format: functional, cell-based; details: Homo sapiens
[27] = test system: Streptococcus; assay: Group A Streptococcus viability loss, dose response, counter-screen for streptokinase expression inhibitor project, luminescence, BacTiterGlo (AID 1915); format: functional, organism-based;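 note: potency for reduction of bacterial viability or growth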
[28] = C. albicans growth with fluconazole, confirmation, fluorescence, retest (AID 2467); format: functional, cell-based
[29] = NIH-3T3 fibroblast cytotoxicity, dose response, cytotoxicity control, cell-based, fluorescence, Alamar Blue, secondary assay (AID 2327); format: functional;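 note: NIH-3T3 mouse fibroblasts cultured with fluconazole at 8 µg/mL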
[30] = cells; format: functional, cell-based
[31] = molecular target: T4, Serine/threonine-protein phosphatase (Candida dubliniensis (strain CD36 / CBS 7987 / NCPF 3949 / NRRLY-17841) (Yeast), UniProt B9W6M3); assay: calcineurin pathway inhibitors in yeast reporter, dose response, S. cerevisiae, CDRE-lacZ, luminescence, secondary (AID 2388); format: functional, cell-based;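 note: yeast reporter cells carrying a calcineurin-responsive lacZ construct stimulated with calcium chloride; luminescent beta-galactosidase reporter signal in whole cells rather than isolated phosphatase activity; potency for inhibition where a drop in reporter signal means calcineurin blockade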
T4 sequence (B9W6M3 whole entry): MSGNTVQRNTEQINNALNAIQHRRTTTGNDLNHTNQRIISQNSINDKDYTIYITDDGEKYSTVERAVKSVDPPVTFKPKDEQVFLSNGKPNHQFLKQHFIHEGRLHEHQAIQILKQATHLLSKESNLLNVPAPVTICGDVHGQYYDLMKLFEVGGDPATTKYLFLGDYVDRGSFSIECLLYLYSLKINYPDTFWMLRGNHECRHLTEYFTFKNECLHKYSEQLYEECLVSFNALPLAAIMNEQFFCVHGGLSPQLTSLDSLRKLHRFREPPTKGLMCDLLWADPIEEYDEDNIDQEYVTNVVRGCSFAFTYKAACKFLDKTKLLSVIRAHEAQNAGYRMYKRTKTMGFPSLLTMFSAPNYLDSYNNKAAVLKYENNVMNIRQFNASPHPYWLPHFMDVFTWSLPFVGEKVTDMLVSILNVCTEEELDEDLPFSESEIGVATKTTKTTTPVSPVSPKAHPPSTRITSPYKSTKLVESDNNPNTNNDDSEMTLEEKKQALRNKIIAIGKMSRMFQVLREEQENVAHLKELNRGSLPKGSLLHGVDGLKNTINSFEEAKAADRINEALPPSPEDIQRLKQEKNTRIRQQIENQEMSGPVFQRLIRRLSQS

[32] = molecular target: ATP-dependent molecular chaperone HSP82 (Candida albicans (strain WO-1) (Yeast), UniProt C4YTQ8); assay: loss of DOC-induced GRE-beta-galactosidase reporter signal, dose response, Hsp90 inhibitor project, S. cerevisiae, luminescence (AID 2400); format: functional, cell-based;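 note: beta-galactosidase luminescence from glucocorticoid response element reporter as proxy for Hsp90 function; inhibitor potency where signal loss means Hsp90 inhibition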
[33] = Luminescence Cell-Based Dose Retest to Confirm Inhibitors of Cancer Stem Cells. [Related pubchem assays (depositor defined):AID2717, AID2721]; format: functional; details: Homo sapiens
[34] = molecular target: Cytochrome P450 2D6 (Homo sapiens, UniProt P10635);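 note: CYP2D6 member of a cytochrome P450 panel assay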
[35] = cells; format: functional, cell-based; remark: listed apart in the source
[36] = test system: Streptococcus sp. 'group A'; assay: growth inhibition of control SK(-) GAS strain, dose response, counter-screen for streptokinase expression inhibitor project, luminescence, kanamycin, BacTiterGlo, confirmation (AID 1900); format: functional, organism-based
[37] = molecular target: T5, Microphthalmia-associated transcription factor (Homo sapiens, UniProt O75030); assay: TRPM1 promoter luciferase signal decrease, dose response, MITF inhibitor project, cell-based, SK-MEL-5, cherry-picked, set 3 (AID 493073); format: functional
T5 sequence (O75030 whole entry): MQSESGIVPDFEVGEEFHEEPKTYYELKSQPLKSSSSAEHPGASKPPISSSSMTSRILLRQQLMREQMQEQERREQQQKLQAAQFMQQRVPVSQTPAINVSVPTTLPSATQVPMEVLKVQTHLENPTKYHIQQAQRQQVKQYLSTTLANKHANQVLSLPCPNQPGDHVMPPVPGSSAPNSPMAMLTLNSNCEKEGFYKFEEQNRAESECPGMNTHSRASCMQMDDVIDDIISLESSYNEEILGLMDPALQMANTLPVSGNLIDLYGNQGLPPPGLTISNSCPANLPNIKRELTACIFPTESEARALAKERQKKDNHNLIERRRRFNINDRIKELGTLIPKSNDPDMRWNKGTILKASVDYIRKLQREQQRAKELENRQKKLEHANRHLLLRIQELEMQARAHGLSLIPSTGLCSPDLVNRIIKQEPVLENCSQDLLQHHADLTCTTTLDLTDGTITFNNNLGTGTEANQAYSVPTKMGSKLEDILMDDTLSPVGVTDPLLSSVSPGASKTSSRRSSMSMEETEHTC

Sequence of Tumor necrosis factor (P01375 whole entry): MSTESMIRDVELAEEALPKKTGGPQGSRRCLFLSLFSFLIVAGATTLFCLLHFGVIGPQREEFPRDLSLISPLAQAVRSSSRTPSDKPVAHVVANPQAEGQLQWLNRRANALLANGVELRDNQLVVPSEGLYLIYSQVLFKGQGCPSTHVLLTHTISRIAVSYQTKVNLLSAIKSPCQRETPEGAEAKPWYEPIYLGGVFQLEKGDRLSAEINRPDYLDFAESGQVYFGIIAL
Sequence of Phospholipase A2 (P04054 whole entry): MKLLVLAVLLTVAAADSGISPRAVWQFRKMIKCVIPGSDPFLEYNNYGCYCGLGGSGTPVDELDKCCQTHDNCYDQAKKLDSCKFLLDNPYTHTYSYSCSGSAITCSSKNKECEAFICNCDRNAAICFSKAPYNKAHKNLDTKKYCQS
Sequence of ATP-dependent molecular chaperone HSP82 (C4YTQ8 whole entry): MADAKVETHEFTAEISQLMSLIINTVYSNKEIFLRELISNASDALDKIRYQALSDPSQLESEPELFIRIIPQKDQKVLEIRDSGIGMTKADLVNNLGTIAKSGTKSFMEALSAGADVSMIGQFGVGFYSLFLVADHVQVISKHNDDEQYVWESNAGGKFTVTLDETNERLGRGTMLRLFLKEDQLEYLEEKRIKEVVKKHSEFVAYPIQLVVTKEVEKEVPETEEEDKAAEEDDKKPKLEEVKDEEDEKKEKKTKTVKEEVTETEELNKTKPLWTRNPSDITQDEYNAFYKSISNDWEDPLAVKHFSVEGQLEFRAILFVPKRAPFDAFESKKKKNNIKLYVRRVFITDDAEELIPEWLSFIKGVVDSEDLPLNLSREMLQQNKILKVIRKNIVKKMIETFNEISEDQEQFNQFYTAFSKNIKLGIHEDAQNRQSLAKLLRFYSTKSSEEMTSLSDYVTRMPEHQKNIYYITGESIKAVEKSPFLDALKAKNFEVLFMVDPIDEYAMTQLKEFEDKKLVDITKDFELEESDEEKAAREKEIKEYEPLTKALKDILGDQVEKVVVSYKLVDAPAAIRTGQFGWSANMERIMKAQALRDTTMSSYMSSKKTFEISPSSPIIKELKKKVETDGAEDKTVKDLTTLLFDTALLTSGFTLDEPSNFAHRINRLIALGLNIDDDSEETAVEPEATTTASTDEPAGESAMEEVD
Sequence of Nucleotide-binding oligomerization domain-containing protein 2 (Q9HC29 whole entry, the tested form may be a part): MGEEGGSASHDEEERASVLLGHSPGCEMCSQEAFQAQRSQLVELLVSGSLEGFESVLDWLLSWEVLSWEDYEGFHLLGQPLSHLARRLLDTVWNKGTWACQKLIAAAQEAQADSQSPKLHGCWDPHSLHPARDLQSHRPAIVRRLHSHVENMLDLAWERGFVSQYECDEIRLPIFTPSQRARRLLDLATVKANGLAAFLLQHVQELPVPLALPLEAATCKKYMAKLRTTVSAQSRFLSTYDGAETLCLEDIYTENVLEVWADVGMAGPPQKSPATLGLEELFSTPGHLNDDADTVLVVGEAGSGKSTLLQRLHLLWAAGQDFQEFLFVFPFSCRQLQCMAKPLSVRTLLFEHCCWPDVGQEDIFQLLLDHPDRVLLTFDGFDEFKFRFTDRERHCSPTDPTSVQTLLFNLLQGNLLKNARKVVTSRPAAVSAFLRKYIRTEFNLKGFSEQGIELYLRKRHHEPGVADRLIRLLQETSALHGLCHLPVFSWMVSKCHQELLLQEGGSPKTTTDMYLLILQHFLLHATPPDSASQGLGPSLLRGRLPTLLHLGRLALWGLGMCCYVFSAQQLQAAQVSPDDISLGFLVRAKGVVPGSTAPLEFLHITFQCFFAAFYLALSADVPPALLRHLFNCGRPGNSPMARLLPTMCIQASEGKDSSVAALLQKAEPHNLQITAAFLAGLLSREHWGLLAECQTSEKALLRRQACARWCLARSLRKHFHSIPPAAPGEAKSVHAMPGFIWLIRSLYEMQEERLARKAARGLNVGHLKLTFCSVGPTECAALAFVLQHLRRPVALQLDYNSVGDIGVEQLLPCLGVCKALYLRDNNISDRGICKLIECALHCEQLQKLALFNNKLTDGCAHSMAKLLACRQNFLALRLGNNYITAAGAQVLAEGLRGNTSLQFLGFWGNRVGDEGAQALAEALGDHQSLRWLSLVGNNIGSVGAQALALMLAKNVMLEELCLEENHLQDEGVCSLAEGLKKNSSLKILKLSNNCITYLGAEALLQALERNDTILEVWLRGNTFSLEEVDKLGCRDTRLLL
Sequence of Cytochrome P450 2D6 (P10635 whole entry): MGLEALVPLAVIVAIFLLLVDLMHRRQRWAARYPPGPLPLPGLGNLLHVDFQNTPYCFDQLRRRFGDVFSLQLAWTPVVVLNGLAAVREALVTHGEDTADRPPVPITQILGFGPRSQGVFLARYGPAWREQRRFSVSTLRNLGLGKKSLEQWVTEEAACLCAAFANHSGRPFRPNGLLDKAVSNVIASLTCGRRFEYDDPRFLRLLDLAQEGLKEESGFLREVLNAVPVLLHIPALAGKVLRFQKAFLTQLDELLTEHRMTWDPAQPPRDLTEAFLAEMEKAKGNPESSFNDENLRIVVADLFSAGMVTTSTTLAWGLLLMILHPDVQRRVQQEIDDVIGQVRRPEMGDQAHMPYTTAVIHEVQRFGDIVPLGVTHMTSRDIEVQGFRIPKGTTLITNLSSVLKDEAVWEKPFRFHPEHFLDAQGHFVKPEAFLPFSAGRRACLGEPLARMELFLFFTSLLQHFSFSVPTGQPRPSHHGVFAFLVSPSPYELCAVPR

CCOC(=O)CC(=O)Nc1ccccc1C(=O)O
AC50 [1]: 27 µM (active)

CC(C)CCNC(=O)c1c(N)n(CC2CCCO2)c2nc3ccccc3nc12 (configuration not stated)
EC50 [2]: 13.2 µM (active) | AC50 [3]: 16.3 µM (active) | EC50 [4]: 13.6 µM (active)

Cn1nccc1C(=O)NC1CCCc2c1cnn2-c1ccccc1F (configuration not stated)
IC50 [5]: > 20 µM (inactive) | IC50 [6]: 13.8 µM (active) | IC50 [7]: 2.36 µM (active) | IC50 [8]: > 80 µM (inactive) | AC50 [9]: 0.472 µM (active) | IC50 [10]: 1.51 µM (active) | EC50 [11]: 0.62 µM (active) | AC50 [12]: 0.37 µM (active) | IC50 [13]: 968 nM (active) and 825 nM (active) | AC50 [14]: 3.96 µM (active) | IC50 [15]: 2.71 µM (active) | IC50 [16]: 4.28 µM (active) and 14.6 µM (active) | AC50 [17]: 2.26 µM (active) | IC50 [18]: > 80 µM (inactive) | EC50 [19]: 0.61 µM (active) | IC50 [20]: > 20 µM (inactive)

CC1=Nc2cc(C(=O)NCc3ccco3)ccc2Sc2ccc(C)cc21
EC50 [21]: 1.95 µM (active) | EC50 [22]: 2.33 µM (inconclusive) | IC50 [23]: 74.1 µM (inactive) | IC50 [24]: 77.5 µM (inactive) | EC50 [25]: 2.73 µM (inconclusive) | EC50 [26]: 2.76 µM (active)

COC(=O)c1c(NC(=O)C(=O)NCCCN2CCOCC2)sc2c1CCCC2
AC50 [1]: 19.8 µM (active)

CC(C)Cc1ccc(CN2CCCC(NC(=O)Cn3cnnn3)C2)cc1 (configuration not stated)
AC50 [3]: 103 µM (active)

Cc1c(Cl)c([N+](=O)[O-])nn1Cc1ccc(C(=O)N/N=C\c2cc(Cl)ccc2O)o1
EC50 [27]: 2.38 µM (active) | EC50 [28]: 0.754 µM (active) | EC50 [29]: > 160 µM (inactive) | EC50 [30]: 9.68 µM (active) | EC50 [31]: > 180 µM (inactive) | IC50 [23]: 5.5 µM (active) | EC50 [32]: 29.5 µM (active) | IC50 [24]: 21 µM (inactive) | AC50 [33]: 3.28 µM (active) | AC50 [34]: 11.2 µM (inconclusive) | EC50 [35]: 89 µM (active) | AC50 [17]: 1.67 µM (active) | EC50 [36]: 2.03 µM (active) | AC50 [37]: 3.47 µM (active)

Reference: ChEMBL document CHEMBL1201862, “PubChem BioAssay data set” (2004)
